Where two headings read alike, the source gives them in different places.
Tests used:
Format in all cases: binding
[1] = biological target: T1, FBW7^ARG+pCycE (Homo sapiens, UniProt Q969H0, R505L); assay: FBW7^ARG-cyclin E agonist ALPHAscreen (primary PRUN, confirmation CRUN1, dose-response DRUN); conditions: for EC50 / Emax: DRUN dose-response; for Emax: relative to WT-FBW7+pCycE, read-out: FBW7 ACT Averaged Max % Response
T1 construct: GST (TEV site and flexible linker) (N, cleaved yes); made in house; host or cells: SF9 insect cells (baculovirus)
Description: FBW7^ARG refers to a class of loss-of-function mutations of the of FBW7 ubiquitin ligase that target a key phosphate-binding arginine residue in the FBW7 substrate-binding domain. These mutations are commonly found in human cancers and promote tumorigenesis by impairing the interactions between FBW7 and its substrates, such as cyclin E and Myc. Described herein is a high throughput screen (HTS) to identify agonists, such as small molecules, that augment FBW7^ARG-substrate binding. In an embodiment, the HTS is based on the Amplified Luminescent Proximity Homogenous Assay (ALPHAscreen) because it detects protein-protein interactions with a large dynamic range. ALPHAscreen is a bead-based proximity assay wherein donor beads contain a photosensitizer, phthalocyanine, and acceptor beads contain thioxene, anthracene and rubrenein in sufficient quantities to generate a chemiluminescence/fluorescence reaction (FIG. 4A). Upon excitation with excitation illumination, such as light having a wavelength of 680 nm, of the donor beads, phthalocyanine converts ambient oxygen to singlet oxygen, which can diffuse approximately 200 nm within its 4-microsecond half-life. If an acceptor bead is in close proximity to an excited donor bead, singlet oxygen transfers its energy to the acceptor, resulting in emitted light at a broad bandwidth of −520-620 nm. The HTS-compatible FBW7/cyclin E ALPHAscreen assay described herein uses streptavidin coupled donor beads and Ni-chelate acceptor beads. In this assay, biotinylated cyclin E phosphopeptide and the His-tagged FBW7 mutant protein have high affinity for the donor and acceptor beads, respectively (FIG. 4B). A small molecule that is able to bridge the binding sites of the peptide and the mutant protein (or induce a conformational change that increases affinity of the protein for the peptide) will bring the donor and acceptor beads in close proximity to each other, resulting in an ALPHA signal. As designed, this assay format is a very sensitive, non-radioactive, homogenous “mix-and-read” format that is HT compatible in 384 and 1536 well formats.
In the 384-well screening assay, 10 uL of acceptor beads with 25 nM of the FBW7^ARG (RLFBW7) are dispensed to test wells; acceptor beads with 25 nM of the wt-FBW7 protein (WTFBW7) are dispensed to control wells. Test compounds are then added by pintool transfer and the mixture is incubated for 30 minutes. An additional 10 uL of donor beads with 25 nM cyclin E phosphopeptide is then added to all wells and the plate is incubated for 4 hours before the ALPHA signal is measured.
In preparation for large-scale screening, the assay was miniaturized to a 1536-well format. The miniaturized screen performed outstandingly in all respects. The screen was enhanced with respect to several parameters and assayed its performance using mutant FBW7 and wt-FBW7, as well as non-specific assay agonists. […] For example, the following Z′-scores/FBW7 concentrations were obtained: 6.25 nM/Z′=0.62, 12.5 nm/Z′=0.85, 25.0 nM/Z′=0.84.
1. Add 2.5 uL of RLFBW7/cycE˜P/Ni beads: Final [25 nM/25 nM/10 ug/ml].
2. Add 2.5 uL of WTFBW7/cycE˜P/Ni beads: Final [25 nM/25 nM/10 ug/ml].
4. Add 2.5 uL of SA beads to all wells Final [10 ug/ml],
5. Add 30 nL of compounds,
6. Read ALPHAscreen on Envision
The large-scale FBW7 agonist ALPHAscreen was completed using FBW7^ARG and a phosphorylated cyclin E (pCycE) degron peptide. Wt-FBW7+pCycE-peptide was the “high control”, and Wt-FBW7+unphosph. CycE peptide was the “low control”. The screen was performed on the 645,000-compound Scripps Diversity Library using 1536-well format and drug concentrations of 26.1 μM. An algorithm aided hit identification based on the average percent activation for all compounds and their standard deviation.
A confirmation assay of all 853 compounds in triplicate using a single concentration (26.1 μM). […]

[2] = biological target: T2, FBW7^ARG (RLFBW7) alone (Homo sapiens, UniProt Q969H0, R505L); assay: Counterscreen 1 ALPHAscreen with FBW7^ARG alone (CSRUN1/DCSRUN1); conditions: dose-response counterscreen; for Emax: read-out: RLFBW7 ACT DCSRUN1 Averaged Max % Response
T2 construct: GST (TEV site and flexible linker) (N, cleaved yes); made in house; host or cells: SF9 insect cells (baculovirus)
Description: (§1) Studies in 384-well format were performed using the ENVISION system. Reagent concentrations (see FIG. 6A), order of addition, pH (see FIG. 6B), and reducing agent were altered with the goal of enhancing the dynamic range between wt-FBW7 (the positive control) and FBW7^ARG (FIG. 6 and not shown). Wt-FBW7 produced a signal 100× greater with phosphorylated cyclin E degron peptide compared with unphosphorylated, which represents the assay's maximum range (FIG. 6C). […] This assay thus detects the residual affinity of the FBW7^ARG-substrate interaction, which, as predicted, is stronger than wt-FBW7 protein with unphosphorylated cyclin E peptide. Concurrent with this primary assay, counter ALPHAscreens were developed which omitted either FBW7 or peptide (to eliminate hits that are general ALPHAscreen agonists), or used an irrelevant phosphopeptide (to eliminate compounds that simply augment binding to phosphopeptides). […]
(§2) The 77 hits were subjected to a dose-response assay in which each compound was tested in triplicate in a 10 point 3-fold dilutional series, to a maximum concentration of approximately 87 μM. Three screens were performed, using FBW7^ARG+pCycE (DRUN), FBW7^ARG (DCSRUN1), or pCycE alone (DCSRUN2). See TABLES 2, 3, and 4, respectively, and FIG. 10A. All of the assays performed extremely well, and threshold of 10% activation (relative to WT-FBW7+pCycE) was set as positive. […] Many hits fell into shared structure cluster ID groups, reinforcing the idea that they function as specific agonists (see below and TABLE 5).

[3] = tested on: pCycE alone; assay: Counterscreen 2 ALPHAscreen with cyclin E phosphopeptide alone (CSRUN2/DCSRUN2); conditions: for CyCEP ACT DCSRUN2 Averaged Max % Response: activation relative to WT-FBW7+pCycE, averaged maximum; for EC50: dose-response, triplicate, 10 point 3-fold dilutional series, read-out: CyCEP ACT DCSRUN2 Final EC50
Description: as §1, §2

[4] = raw curve fit, read-out: FBW7 ACT EC50 Curve Fit Raw, Molar
[5] = triplicate, 10 point 3-fold dilution, max approx. 87 μM, read-out: FBW7 ACT Final EC50, Molar
[6] = confirmation assay, triplicate, single concentration 26.1 μM, read-out: FBW7 ACT CRUN1 Avg % Response and Stdev
[7] = primary screen, 1536-well, 26.1 μM, FBW7^ARG + pCycE degron peptide, high control wt-FBW7+pCycE, read-out: FBW7 ACT PRUN % Response
[8] = read-out: RLFBW7 ACT DCSRUN1 Final EC50
[9] = raw curve fit, read-out: RLFBW7 ACT DCSRUN1 EC50 Curve Fit Raw

T2 sequence (Q969H0 64-707 R505L): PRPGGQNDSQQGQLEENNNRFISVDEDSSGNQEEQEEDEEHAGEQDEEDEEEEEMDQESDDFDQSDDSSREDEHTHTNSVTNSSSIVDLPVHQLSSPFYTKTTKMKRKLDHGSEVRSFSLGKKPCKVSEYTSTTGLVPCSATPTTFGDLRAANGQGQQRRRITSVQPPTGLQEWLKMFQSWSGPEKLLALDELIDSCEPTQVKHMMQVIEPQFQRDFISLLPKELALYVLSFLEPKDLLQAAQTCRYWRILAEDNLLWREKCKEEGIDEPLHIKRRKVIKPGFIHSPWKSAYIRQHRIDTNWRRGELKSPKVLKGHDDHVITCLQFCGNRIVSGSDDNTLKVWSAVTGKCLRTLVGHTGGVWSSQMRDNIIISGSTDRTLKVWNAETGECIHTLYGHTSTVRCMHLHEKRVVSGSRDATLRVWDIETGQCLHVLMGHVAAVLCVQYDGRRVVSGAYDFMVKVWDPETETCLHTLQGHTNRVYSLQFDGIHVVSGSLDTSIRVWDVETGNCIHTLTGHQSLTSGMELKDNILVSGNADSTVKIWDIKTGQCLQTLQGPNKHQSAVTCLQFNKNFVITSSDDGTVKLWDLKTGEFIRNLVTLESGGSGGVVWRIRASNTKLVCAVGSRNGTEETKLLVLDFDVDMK
T2 sequence (P63208 2-163 partner): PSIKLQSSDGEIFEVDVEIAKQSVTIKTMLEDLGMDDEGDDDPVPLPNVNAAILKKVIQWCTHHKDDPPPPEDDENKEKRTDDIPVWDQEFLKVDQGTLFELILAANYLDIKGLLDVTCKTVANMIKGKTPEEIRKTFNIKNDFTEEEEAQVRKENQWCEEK
T1 sequence (Q969H0 64-707 R505L): as the sequence (Q969H0 64-707 R505L) above
T1 sequence (P63208 2-163 partner): as the sequence (P63208 2-163 partner) above

Row | Structure (SMILES) | EC50 [1, 4] [µM] | Emax [1] [%] | EC50 [1, 5] [µM] | activation at 26.1 µM [1, 6] [%] | activation at 26.1 µM [1, 7] [%] | Emax [2] [%] | EC50 [2, 8] [µM] | CyCEP ACT DCSRUN2 Averaged Max % Response [3] [%] | EC50 [3] [µM] | EC50 [2, 9] [µM]
1 | Cc1cc(OCC(=O)Nc2ccc3oc(-c4ccccc4Br)nc3c2)cc(C)c1Cl [SR-01000421466-1] | 0.0412 | 8.15 | > 43.2 | 3.2 ± 0.75 | 2.01 | 0.32 | > 43.2 | 0.02 | > 43.2 | 
2 | NC(c1nc2cc(-c3ccncc3)cnc2[nH]1)c1ccc(F)cc1F.O=C(O)C(F)(F)F (stereo not shown) [SR-00000003416-1] | 8.8 | 16.4 | > 65.3 | 3.91 ± 0.47 | 3.51 | 0.2 | > 65.3 | 0.29 | > 65.3 | 4
3 | CCSCCOC(=O)C1=C(C)NC2=C(C(=O)CC(c3ccccc3)C2)C1c1ccc(OC)cc1OC (stereo not shown) [SR-01000425645-1] | 0.0036 | 7.92 | > 41.4 | 5.16 ± 0.69 | 2.28 | 0.91 | > 41.4 | 2.61 | > 41.4 | 0.0044
4 | CCC(C)OC(=O)C1=C(C)NC2=C(C(=O)CC(c3ccc(Cl)cc3)C2)C1c1cccc(Cl)c1 (stereo not shown) [SR-01000422821-1] | 16 | 9.85 | > 45.8 | 6.44 ± 0.56 | 1.86 | 4.29 | > 45.8 | 0.13 | > 45.8 | 24.1
5 | Cc1ccc(-c2nnc(N3CCN(C(=O)c4ccco4)CC3)c3ccccc23)cc1 [SR-01000505133-1] | 19.6 | 16.5 | > 54 | 2.31 ± 0.38 | 2.28 | 2.77 | > 54 | 1.77 | > 54 | 0.008
6 | CCS(=O)(=O)NCC(c1cccs1)S(=O)(=O)c1ccc(C)cc1 (stereo not shown) [SR-01000023127-1] | 7.6 | 14.7 | > 66.4 | 2.18 ± 0.61 | 3.19 | 0.24 | > 66.4 | 0.21 | > 66.4 | 0.0177
7 | COc1ccc(N2C(=O)CC(SCCN)C2=O)cc1 (stereo not shown) [SR-01000428800-1] | 15.1 | 9.73 | > 87.4 | 11.2 ± 1.65 | 2.51 | 1.48 | > 87.4 | 2.47 | > 87.4 | 0.0102
8 | Fc1ccccc1CSc1nnnn1-c1ccccc1F [SR-01000432842-1] | 0.0082 | 8.63 | > 72.9 | 5.32 ± 2.7 | 2.34 | 1.65 | > 72.9 | 2.47 | > 72.9 | 0.0102
9 | COc1cc(-c2ccnc(N)n2)ccc1NC(=O)[C@H]1COc2ccccc2O1.O=C(O)C(F)(F)F [SR-00000003239-1] | 18.6 | 19.3 | > 65.3 | 2.52 ± 0.29 | 2.52 | 0.69 | > 65.3 | 0.15 | > 65.3 | 12.8
10 | O=C(c1ccco1)N1CCN(c2ncc(-c3ccccc3CO)n3ccnc23)CC1 [SR-01000381408-1] | 20.3 | 18.1 | > 65.3 | 1.92 ± 0.3 | 6.66 | 0.83 | > 65.3 | 0.18 | > 65.3 | 0.229
11 | Cc1nc(C(C)NC(=O)c2cc(COc3ccc(F)cc3F)on2)cs1 (stereo not shown) [SR-01000168282-1] | 2.3 | 6.52 | > 65.3 | 1.88 ± 0.38 | 2.02 | 1.75 | > 65.3 | 0.37 | > 65.3 | 0.0108

Source: patent US20210047278A1, “E3 UBIQUITIN LIGASE AGONISTS, PHARMACEUTICAL COMPOSITIONS INCLUDING THE E3 UBIQUITIN LIGASE AGONISTS, RELATED METHODS OF USE” (FRED HUTCHINSON CANCER RESEARCH CENTER, priority 2018, published 2021)
